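Each compound was tested at five concentrations against cells in 96-well plates for 48 hours. GI50 = concentration required for 50% inhibition of growth. Definition used: TGI = concentration required for complete inhibition of growth.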
What was measured:
Assay in all cases: inhibition of tumour cell growth, NCI panel, 48 h; in the data active = GI50 below about 0.43 µM; inactive = the rest
[1] = system: A498 renal
[2] = system: A549 NSCLC
[3] = system: ACHN renal
[4] = system: CAKI-1 renal
[5] = system: CCRF-CEM leukemia
[6] = system: COLO 205 colon
[7] = system: DU-145 prostate
[8] = system: EKVX NSCLC
[9] = system: HCC-2998 colon
[10] = system: HCT-116 colon
[11] = system: HCT-15 colon
[12] = system: HL-60(TB) leukemia
[13] = system: HOP-62 NSCLC
[14] = system: HOP-92 NSCLC
[15] = system: HS 578T breast
[16] = system: HT29 colon
[17] = system: IGROV1 ovarian
[18] = system: K-562 leukemia
[19] = system: KM12 colon
[20] = system: LOX IMVI melanoma
[21] = system: M14 melanoma
[22] = system: MALME-3M melanoma
[23] = system: MCF7 breast
[24] = system: MDA-MB-231 breast
[25] = system: MDA-MB-435
[26] = system: MOLT-4 leukemia
[27] = system: NCI-H226 lung
[28] = system: NCI-H23 lung
[29] = system: NCI-H460 lung
[30] = system: NCI-H522 lung
[31] = system: NCI/ADR-RES ovarian
[32] = system: OVCAR-3 ovarian
[33] = system: OVCAR-4 ovarian
[34] = system: OVCAR-8 ovarian
[35] = system: PC-3 prostate
[36] = system: RPMI-8226 leukemia
[37] = system: RXF 393 renal
[38] = system: SF-268 CNS
[39] = system: SF-295 CNS
[40] = system: SF-539 CNS
[41] = system: SK-MEL-2 melanoma
[42] = system: SK-MEL-28 melanoma
[43] = system: SK-MEL-5 melanoma
[44] = system: SN12C renal
[45] = system: SNB-19 CNS
[46] = system: SNB-75 CNS
[47] = system: SR leukemia
[48] = system: SW-620 colon
[49] = system: T-47D breast
[50] = system: TK-10 renal
[51] = system: U251 CNS
[52] = system: UACC-257 melanoma
[53] = system: UACC-62 melanoma
[54] = system: UO-31 renal
[55] = system: OVCAR-5 ovarian
[56] = system: SK-OV-3 ovarian

O=[N+]([O-])c1ccccc1NC1c2ccccc2Oc2ccccc21
38.6 µM: TGI [46]
16.6 µM: TGI [37]
inactive: GI50 [1] 5.82 µM | GI50 [2] 6.51 µM | GI50 [3] 5.93 µM | GI50 [4] 11 µM | GI50 [5] 4.44 µM | GI50 [6] 3590 nM | GI50 [7] 43 µM | GI50 [8] 17.2 µM | GI50 [9] 75.2 µM | GI50 [10] 4080 nM | GI50 [11] 3.5 µM | GI50 [12] 2800 nM | GI50 [13] 8.07 µM | GI50 [14] 4220 nM | GI50 [15] 8.35 µM | GI50 [16] 3830 nM | GI50 [17] 16.9 µM | GI50 [18] 3690 nM | GI50 [19] 4340 nM | GI50 [20] 5.52 µM | GI50 [21] 3.53 µM | GI50 [22] 7.13 µM | GI50 [23] 4130 nM | GI50 [24] 3950 nM | GI50 [25] 2500 nM | GI50 [26] 5.03 µM | GI50 [27] 5.91 µM | GI50 [28] 9.67 µM | GI50 [29] 3870 nM | GI50 [30] 3840 nM | GI50 [31] 4.03 µM | GI50 [32] 3.64 µM | GI50 [33] 8.21 µM | GI50 [34] 6.73 µM | GI50 [35] 5.88 µM | GI50 [36] 5.86 µM | GI50 [37] 3.35 µM | GI50 [38] 8.06 µM | GI50 [39] 4.45 µM | GI50 [40] 3270 nM | GI50 [41] 8.43 µM | GI50 [42] 4.85 µM | GI50 [43] 3440 nM | GI50 [44] 6.17 µM | GI50 [45] 4.35 µM | GI50 [46] 2940 nM | GI50 [47] 3320 nM | GI50 [48] 3.55 µM | GI50 [49] 27.8 µM | GI50 [50] 29.1 µM | GI50 [51] 4.88 µM | GI50 [52] 7.2 µM | GI50 [53] 2940 nM | GI50 [54] 7.46 µM
66.6 µM: TGI [24]
> 100 µM: TGI [1] | TGI [2] | TGI [3] | TGI [4] | TGI [5] | TGI [6] | TGI [7] | TGI [8] | TGI [9] | TGI [11] | TGI [13] | TGI [14] | TGI [17] | TGI [18] | TGI [19] | TGI [20] | TGI [21] | TGI [22] | TGI [23] | TGI [26] | TGI [27] | TGI [28] | TGI [29] | TGI [31] | TGI [32] | TGI [33] | TGI [34] | TGI [35] | TGI [36] | TGI [38] | TGI [39] | TGI [40] | TGI [41] | TGI [42] | TGI [44] | TGI [45] | TGI [47] | TGI [48] | TGI [49] | TGI [50] | TGI [51] | TGI [52] | TGI [53] | TGI [54]
7.09 µM: TGI [12]
> 100000 nM: TGI [10] | TGI [15] | TGI [16] | TGI [30] | TGI [43]
6.64 µM: TGI [25]

COc1cc(/C=C/c2cc(/C=C/c3ccc(O)c(OC)c3)nc(N)n2)ccc1O
10.3 µM: TGI [11]
3.5 µM: TGI [52]
9.55 µM: TGI [49]
15.6 µM: TGI [38]
4.54 µM: TGI [39]
3.24 µM: TGI [6]
8.23 µM: TGI [56]
4.34 µM: TGI [27]
6.17 µM: TGI [12]
2990 nM: TGI [15]
6.83 µM: TGI [8]
3.32 µM: TGI [19]
> 100 µM: TGI [44]
active: GI50 [16] 314 nM
6.76 µM: TGI [22]
5.19 µM: TGI [14] | TGI [26]
6.33 µM: TGI [23]
5.57 µM: TGI [35]
4.18 µM: TGI [36]
3.26 µM: TGI [1]
9.54 µM: TGI [50]
5.2 µM: TGI [29]
6.31 µM: TGI [7]
6.46 µM: TGI [4]
4.53 µM: TGI [42]
4.08 µM: TGI [24]
948 nM: TGI [16]
7.88 µM: TGI [3]
3.34 µM: TGI [46]
11.5 µM: TGI [33]
3.19 µM: TGI [9]
8.31 µM: TGI [18]
7.95 µM: TGI [45]
5.69 µM: TGI [51]
7.24 µM: TGI [34]
2390 nM: TGI [10]
3.58 µM: TGI [47]
inactive: GI50 [1] 1.51 µM | GI50 [2] 2.22 µM | GI50 [3] 2.54 µM | GI50 [4] 2.23 µM | GI50 [6] 1800 nM | GI50 [7] 2.4 µM | GI50 [8] 2.22 µM | GI50 [9] 1.75 µM | GI50 [10] 1100 nM | GI50 [11] 2.82 µM | GI50 [12] 2180 nM | GI50 [14] 1260 nM | GI50 [15] 0.524 µM | GI50 [17] 2.95 µM | GI50 [18] 2300 nM | GI50 [19] 1630 nM | GI50 [22] 2.71 µM | GI50 [23] 1810 nM | GI50 [24] 1450 nM | GI50 [26] 1.01 µM | GI50 [27] 1.83 µM | GI50 [29] 2050 nM | GI50 [30] 1240 nM | GI50 [31] 2.88 µM | GI50 [32] 2.65 µM | GI50 [33] 1.71 µM | GI50 [55] 2030 nM | GI50 [34] 2.19 µM | GI50 [35] 1.48 µM | GI50 [36] 1.29 µM | GI50 [38] 2.11 µM | GI50 [39] 1.93 µM | GI50 [40] 2050 nM | GI50 [42] 1.85 µM | GI50 [43] 1490 nM | GI50 [56] 2600 nM | GI50 [44] 2.74 µM | GI50 [45] 1.81 µM | GI50 [46] 1260 nM | GI50 [47] 720 nM | GI50 [49] 2.83 µM | GI50 [50] 3.39 µM | GI50 [51] 1.79 µM | GI50 [52] 1.53 µM | GI50 [54] 2.09 µM
8.62 µM: TGI [32]
2790 nM: TGI [30]
2890 nM: TGI [43]
4.33 µM: TGI [55]
7.58 µM: TGI [54]
18.8 µM: TGI [31]
7.08 µM: TGI [17]
6.04 µM: TGI [2]
5.73 µM: TGI [40]
